{"source": "patent US20080090863A1", "about": "“Pyridine Derivatives and Their Use as Medicaments for Treating Diseases Related to Mch Receptor” (TAISHO PHARMACEUTICAL CO., LTD., priority 2004, published 2008)"}
{"molecular_target": "MCH receptor (Homo sapiens, UniProt Q99705)", "assay": "High Throughput Functional Screening: FLIPR/FDSS6000 intracellular Ca2+ assay, antagonist activity against MCH", "type": "cell-based", "parameters": "class (percent of control at 10^−7 M or IC50): scale not given here", "details": "FLIPR/FDSS, [Ca2+]i evoked by 50 nM MCH; class by percent of control at 10^−7 M or IC50", "description": "(§1) Subsequently, a functional based assay was used to confirm the lead hits, referred to as FLIPR™ (the Fluorometric Imaging Plate Reader) and FDSS6000™ (Functional Drug Screening System). This assay utilized a non-endogenous, constitutively active version of the MCH receptor.\n(§2) The FLIPR and FDSS assays are able to detect intracellular Ca^2+ concentration in cells, which can be utilized to assess receptor activation and determine whether a candidate compound is an, for example, antagonist, inverse agonist or agonist to a Gq-coupled receptor. The concentration of free Ca^2+ in the cytosol of any cell is extremely low, whereas its concentration in the extracellular fluid and endoplasmic reticulum (ER) is very high. Thus, there is a large gradient tending to drive Ca^2+ into the cytosol across both the plasma membrane and ER. The FLIPR™ and FDSS6000™ systems (Molecular Devices Corporation, HAMAMATSU Photonics K.K.) are designed to perform functional cell-based assays, such as the measurement of intracellular calcium for high-throughput screening. The measurement of fluorescent is associated with calcium release upon activation of the Gq-coupled receptors.\n(§3) Fluorometric Imaging Plate Reader system was used to allow for rapid, kinetic measurements of intracellular fluorescence in 96 well microplates (or 384 well microplates). Simultaneous measurements of fluorescence in all wells can be made by FLIPR or FDSS6000™ every second with high sensitivity and precision. These systems are ideal for measuring cell-based functional assays such as monitoring the intracellular calcium fluxes that occur within seconds after activation of the Gq coupled receptor.\n(§4) Briefly, the cells are seeded into 96 well at 5.5×10^4 cells/well with complete culture media (Dulbecco's Modified Eagle Medium with 10% fetal bovine serum, 2 mM L-glutamine, 1 mM sodium pyruvate and 0.5 mg/mL G418, pH 7.4) for the assay next day. On the day of assay, the media is removed and the cells are incubated with 100 μl of loading buffer (4 μM Fluo4-AM in complete culture media containing 2.5 mM Probenicid, 0.5 mg/ml and 0.2% bovine serum albumin) in 5% CO2 incubator at 37° C. for 1 hr. The loading buffer is removed, and the cells are washed with wash buffer (Hank's Balanced Salt Solution containing 2.5 mM Probenicid, 20 mM HEPES, 0.5 mg/mL and 0.2% bovine serum albumin, pH 7.4). One hundred fifty μl of wash buffer containing various concentrations of test compound is added to the cells, and the cells are incubated in 5% CO2 incubator at 37° C. for 30 min. Fifty μl of wash buffer containing various concentration of MCH are added to each well, and transient changes in [Ca^2+]i evoked by MCH are monitored using the FLIPR™ or FDSS in 96 well plates at Ex. 488 nm and Em. 530 nm for 290 second. When antagonist activity of compound is tested, 50 nM of MCH is used.\n(§5) Use of FLIPR™ and FDSS6000™ can be accomplished by following manufacturer's instruction (Molecular Device Corporation and HAMAMATSU Photonics K.K.)."}
{"smiles": "CCCN(CCC)S(=O)(=O)c1ccc(C(=O)N[C@H]2CC[C@@H](Nc3cc(N(C)C)cc(C)n3)CC2)cc1", "note": "[Example 166, N-(cis-4-{[4-(dimethylamino)-6-methylpyridin-2-yl]amino}cyclohexyl)-4-[(dipropylamino)sulfonyl]benzamide]", "class (percent of control at 10^−7 M or IC50)": 2}
{"smiles": "Cc1cc(N(C)C)cc(N[C@H]2CC[C@@H](NC(=O)Cc3cccc4ccccc34)CC2)n1", "note": "[Example 168, N-(cis-4-{[4-(dimethylamino)-6-methylpyridin-2-yl]amino}cyclohexyl)-2-(1-naphthyl)acetamide]", "class (percent of control at 10^−7 M or IC50)": 2}
{"smiles": "Cc1cc(N(C)C)cc(N[C@H]2CC[C@@H](NC(=O)c3cccc(C(F)(F)F)c3)CC2)n1", "note": "[Example 177, N-(cis-4-{[4-(dimethylamino)-6-methylpyridin-2-yl]amino}cyclohexyl)-3-(trifluoromethyl)benzamide]", "class (percent of control at 10^−7 M or IC50)": 2}
{"smiles": "Cc1cc(N(C)C)cc(N[C@H]2CC[C@@H](NC(=O)c3cccnc3Oc3ccccc3)CC2)n1", "note": "[Example 203, N-(cis-4-{[4-(dimethylamino)-6-methylpyridin-2-yl]amino}cyclohexyl)-2-phenoxynicotinamide]", "class (percent of control at 10^−7 M or IC50)": 2}
{"smiles": "Cc1cc(N(C)C)cc(N[C@H]2CC[C@@H](NCCOc3ccc(Cl)cc3)CC2)n1", "note": "[Example 209, N-(cis-4-{[2-(4-chlorophenoxy)ethyl]amino}cyclohexyl)-N,N-6-trimethylpyridine-2,4-diamine]", "class (percent of control at 10^−7 M or IC50)": 2}
{"molecular_target": "MCH receptor (Homo sapiens, UniProt Q99705)", "assay": "High Throughput Functional Screening: FLIPR/FDSS6000 intracellular Ca2+ assay, antagonist activity against MCH", "type": "cell-based", "parameters": "class (percent of control at 10^−7 M or IC50): scale not given here", "details": "FLIPR/FDSS, [Ca2+]i evoked by 50 nM MCH; class by percent of control at 10^−7 M or IC50; read-out: class (percent of control at 10^−7 M or IC50)", "description": "as §1, §2, §3, §4, §5", "units": {"IC50": "nM"}}
{"smiles": "Cc1cc(N(C)C)cc(N[C@H]2CC[C@@H](NC(=O)c3ccc4nonc4c3)CC2)n1", "note": "[Example 146, N-(cis-4-{[4-(dimethylamino)-6-methylpyridin-2-yl]amino}cyclohexyl)-2,1,3-benzoxadiazole-5-carboxamide]", "IC50": "< 50"}
{"smiles": "Cc1cc(N(C)C)cc(N[C@H]2CC[C@@H](NC(=O)COc3ccc(Cl)cc3)CC2)n1", "note": "[Example 147, 2-(4-chlorophenoxy)-N-(cis-4-{[4-(dimethylamino)-6-methylpyridin-2-yl]amino}cyclohexyl)acetamide]", "IC50": "< 50"}
{"smiles": "Cc1cc(N(C)C)cc(N[C@H]2CC[C@@H](NC(=O)c3ccc(F)c(F)c3)CC2)n1", "note": "[Example 171, N-(cis-4-{[4-(dimethylamino)-6-methylpyridin-2-yl]amino}cyclohexyl)-3,4-difluorobenzamide]", "IC50": "< 50"}
{"smiles": "Cc1cc(N(C)C)cc(N[C@H]2CC[C@@H](NC(=O)c3ccc(Cl)cc3)CC2)n1", "note": "[Example 185, 4-chloro-N-(cis-4-{[4-(dimethylamino)-6-methylpyridin-2-yl]amino}cyclohexyl)benzamide]", "IC50": "< 50"}
{"smiles": "Cc1cc(N(C)C)cc(N[C@H]2CC[C@@H](NC(=O)C3(c4ccc(Cl)cc4)CCCC3)CC2)n1", "note": "[Example 186, 1-(4-chlorophenyl)-N-(cis-4-{[4-(dimethylamino)-6-methylpyridin-2-yl]amino}cyclohexyl)cyclopentanecarboxamide]", "IC50": "< 50"}
{"smiles": "Cc1cc(N(C)C)cc(N[C@H]2CC[C@@H](NC(=O)c3cccc([N+](=O)[O-])c3)CC2)n1", "note": "[Example 190, N-(cis-4-{[4-(dimethylamino)-6-methylpyridin-2-yl]amino}cyclohexyl)-3-nitrobenzamide]", "IC50": "< 50"}
{"smiles": "COc1ccc(Oc2ccc([N+](=O)[O-])cc2C(=O)N[C@H]2CC[C@@H](Nc3cc(N(C)C)cc(C)n3)CC2)cc1", "note": "[Example 192, N-(cis-4-{[4-(dimethylamino)-6-methylpyridin-2-yl]amino}cyclohexyl)-2-(4-methoxyphenoxy)-5-nitrobenzamide]", "IC50": "< 50"}
